# Experimental data reported in patent US11278513B2, “Diethylamino compounds for use as local anesthetics” (Zhejiang Yuejia Pharmaceuticals Co., Ltd, priority 2017, dated 2022).
# pIC50: −log10 of the molar value. Several values for one entry are separate records, joined by “and”; a condition that tells them apart may be missing. Equal values may be shown once. Read-outs that look alike come from different tables or passages of the source.
# Experiments:
# [1] = system: rat dorsal root ganglion (DRG) neurons; assay: Patch clamp inhibition of action potential of acutely isolated rat DRG neurons; type: cell-based; details: DRG neuron
# From the text: In addition, the inventor used acutely isolated rat dorsal root ganglion (DRG) neurons as the experimental object, using patch clamp technology to investigate the inhibition effect of the compound represented by Formula 1 of the present invention on the neuronal excitability of the dorsal root ganglion.
# Nav1.7 [2] = biological target: T1, Nav1.7 (Homo sapiens, UniProt Q15858); assay: Inhibition of Nav1.7 channel current in CHO cells stably expressing Nav1.7; type: cell-based; details: CHO cells stably expressing Nav1.7, channel current
# T1 construct: expressed in transfected cells
# Nav1.8 [3] = biological target: T2, Nav1.8 (Homo sapiens, UniProt Q9Y5Y9); assay: Inhibition of Nav1.8 channel current in HEK cells stably expressing Nav1.8; type: cell-based; details: HEK cells stably expressing Nav1.8, channel current
# T2 construct: expressed in transfected cells
# [4] = Physical and chemical properties (repose angle, solubility, acidity, dissociation constant); type: physicochemical
# [5] = system: corneal reflex in rabbits; assay: Anesthetic effect on the corneal surface of New Zealand rabbits (corneal reflex inhibition, CRI); type: in vivo, New Zealand white rabbits
# Description: New Zealand white rabbits were weighed. […] A single administration of 3 mg/animal (100 μL) was performed on the surface of the eyeball, and the drug concentration was 3% (m/V) in each case (wherein a Tris solution was added to aspirin to facilitate dissolution). Each group included 12 rabbits. […] An equal volume of normal saline was dropped onto the right eyeball as the self-negative control. […] After 30 minutes of administration, it was tested every 15 minutes. After the corneal reflex returned to the pre-dose level, the test was stopped. By comparing the corneal reflex on the administration side and the self-negative control side, the effect of the compound on the corneal reflex after administration was judged. Corneal reflex inhibition (CRI) was used to evaluate the effect of drugs on corneal reflex. CRI was calculated as follows: […]
# [6] = Stability of aqueous solution at 2-8° C. (HPLC); type: physicochemical; details: for Main Drug, %: aqueous solution 5 g in 50 mL sterile water; for Main Drug, % / Salicylic acid, % (impurity) / Salicylic acid-(2-diethylaminoethyl ester) hydrochloride, % (impurity) / Acetylsalicylic acid, % (impurity): 2-8° C.; for Salicylic acid, % (impurity) / Salicylic acid-(2-diethylaminoethyl ester) hydrochloride, % (impurity) / Acetylsalicylic acid, % (impurity): aqueous solution
# Nav1.7 [7] = biological target: T1, Nav1.7; details: reported by a literature; cited from earlier work
# Nav1.8 [8] = biological target: T2, Nav1.8; details: reported by a literature; cited from earlier work
# [9] = 3% (m/V), 100 μL on left eyeball, 0 min, mean ± SD
# [10] = 3% (m/V), 100 μL on left eyeball, 10 min after administration, mean ± SD
# [11] = 3% (m/V), 100 μL on left eyeball, 15 min after administration, mean ± SD
# [12] = 3% (m/V), 100 μL on left eyeball, 20 min after administration, mean ± SD
# [13] = 3% (m/V), 100 μL on left eyeball, 25 min after administration, mean ± SD
# [14] = 3% (m/V), 100 μL on left eyeball, 30 min after administration, mean ± SD
# [15] = 3% (m/V), 100 μL on left eyeball, 45 min after administration, mean ± SD
# [16] = 3% (m/V), 100 μL on left eyeball, 60 min after administration, mean ± SD
# [17] = ophthalmic administration, 3% (m/V), rabbits
# [18] = 3% (m/V), 100 μL on left eyeball, 5 min after administration, mean ± SD
# T1 sequence (Q15858 whole entry): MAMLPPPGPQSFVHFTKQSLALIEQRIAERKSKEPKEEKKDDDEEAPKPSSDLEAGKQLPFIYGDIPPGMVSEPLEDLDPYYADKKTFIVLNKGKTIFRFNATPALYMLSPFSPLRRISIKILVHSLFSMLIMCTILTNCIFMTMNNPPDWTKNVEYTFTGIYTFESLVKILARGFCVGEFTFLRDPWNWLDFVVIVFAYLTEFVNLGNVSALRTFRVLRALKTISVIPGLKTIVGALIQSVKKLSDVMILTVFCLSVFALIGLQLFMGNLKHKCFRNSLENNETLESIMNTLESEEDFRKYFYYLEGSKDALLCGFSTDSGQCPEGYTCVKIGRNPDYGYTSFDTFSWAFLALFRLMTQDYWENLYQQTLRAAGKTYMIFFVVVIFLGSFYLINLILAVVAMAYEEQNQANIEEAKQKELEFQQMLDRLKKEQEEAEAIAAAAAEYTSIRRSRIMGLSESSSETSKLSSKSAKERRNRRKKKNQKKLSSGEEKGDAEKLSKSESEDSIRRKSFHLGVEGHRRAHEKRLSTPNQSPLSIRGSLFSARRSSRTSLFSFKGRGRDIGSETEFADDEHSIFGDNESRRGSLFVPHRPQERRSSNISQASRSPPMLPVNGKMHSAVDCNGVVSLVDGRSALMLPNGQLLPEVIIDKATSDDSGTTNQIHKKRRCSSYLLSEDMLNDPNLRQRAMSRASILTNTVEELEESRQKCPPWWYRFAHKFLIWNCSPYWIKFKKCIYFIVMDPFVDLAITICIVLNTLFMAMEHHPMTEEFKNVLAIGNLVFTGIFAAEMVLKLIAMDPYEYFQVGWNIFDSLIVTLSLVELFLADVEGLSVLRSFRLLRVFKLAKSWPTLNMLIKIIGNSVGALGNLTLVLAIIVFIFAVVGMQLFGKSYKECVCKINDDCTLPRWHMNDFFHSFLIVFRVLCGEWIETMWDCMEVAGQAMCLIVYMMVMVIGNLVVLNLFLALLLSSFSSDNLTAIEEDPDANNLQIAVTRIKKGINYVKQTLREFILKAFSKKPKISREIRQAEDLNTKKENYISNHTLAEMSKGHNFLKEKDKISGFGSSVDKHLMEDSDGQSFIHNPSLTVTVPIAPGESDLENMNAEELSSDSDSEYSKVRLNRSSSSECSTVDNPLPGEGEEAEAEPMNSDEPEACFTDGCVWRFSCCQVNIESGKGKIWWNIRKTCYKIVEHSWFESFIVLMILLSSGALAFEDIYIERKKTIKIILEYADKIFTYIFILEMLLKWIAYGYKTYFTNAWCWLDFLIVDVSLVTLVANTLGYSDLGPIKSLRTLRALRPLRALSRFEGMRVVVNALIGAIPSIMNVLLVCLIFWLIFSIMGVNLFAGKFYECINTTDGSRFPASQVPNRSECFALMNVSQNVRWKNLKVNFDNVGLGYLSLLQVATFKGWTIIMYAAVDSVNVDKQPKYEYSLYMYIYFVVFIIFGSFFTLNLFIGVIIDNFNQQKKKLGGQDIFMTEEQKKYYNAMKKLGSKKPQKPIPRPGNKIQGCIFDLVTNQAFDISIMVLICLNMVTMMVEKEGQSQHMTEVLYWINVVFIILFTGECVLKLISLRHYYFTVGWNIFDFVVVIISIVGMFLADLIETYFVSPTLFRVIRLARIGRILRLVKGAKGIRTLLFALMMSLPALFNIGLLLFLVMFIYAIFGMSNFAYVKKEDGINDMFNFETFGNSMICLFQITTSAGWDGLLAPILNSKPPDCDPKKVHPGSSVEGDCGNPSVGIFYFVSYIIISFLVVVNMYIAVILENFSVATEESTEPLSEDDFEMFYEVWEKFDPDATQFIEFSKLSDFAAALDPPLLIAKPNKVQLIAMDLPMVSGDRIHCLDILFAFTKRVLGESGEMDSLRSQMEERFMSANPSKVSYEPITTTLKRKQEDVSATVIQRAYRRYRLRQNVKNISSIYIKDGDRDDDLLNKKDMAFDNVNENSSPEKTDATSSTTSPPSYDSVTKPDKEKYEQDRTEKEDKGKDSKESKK
# T2 sequence (Q9Y5Y9 whole entry): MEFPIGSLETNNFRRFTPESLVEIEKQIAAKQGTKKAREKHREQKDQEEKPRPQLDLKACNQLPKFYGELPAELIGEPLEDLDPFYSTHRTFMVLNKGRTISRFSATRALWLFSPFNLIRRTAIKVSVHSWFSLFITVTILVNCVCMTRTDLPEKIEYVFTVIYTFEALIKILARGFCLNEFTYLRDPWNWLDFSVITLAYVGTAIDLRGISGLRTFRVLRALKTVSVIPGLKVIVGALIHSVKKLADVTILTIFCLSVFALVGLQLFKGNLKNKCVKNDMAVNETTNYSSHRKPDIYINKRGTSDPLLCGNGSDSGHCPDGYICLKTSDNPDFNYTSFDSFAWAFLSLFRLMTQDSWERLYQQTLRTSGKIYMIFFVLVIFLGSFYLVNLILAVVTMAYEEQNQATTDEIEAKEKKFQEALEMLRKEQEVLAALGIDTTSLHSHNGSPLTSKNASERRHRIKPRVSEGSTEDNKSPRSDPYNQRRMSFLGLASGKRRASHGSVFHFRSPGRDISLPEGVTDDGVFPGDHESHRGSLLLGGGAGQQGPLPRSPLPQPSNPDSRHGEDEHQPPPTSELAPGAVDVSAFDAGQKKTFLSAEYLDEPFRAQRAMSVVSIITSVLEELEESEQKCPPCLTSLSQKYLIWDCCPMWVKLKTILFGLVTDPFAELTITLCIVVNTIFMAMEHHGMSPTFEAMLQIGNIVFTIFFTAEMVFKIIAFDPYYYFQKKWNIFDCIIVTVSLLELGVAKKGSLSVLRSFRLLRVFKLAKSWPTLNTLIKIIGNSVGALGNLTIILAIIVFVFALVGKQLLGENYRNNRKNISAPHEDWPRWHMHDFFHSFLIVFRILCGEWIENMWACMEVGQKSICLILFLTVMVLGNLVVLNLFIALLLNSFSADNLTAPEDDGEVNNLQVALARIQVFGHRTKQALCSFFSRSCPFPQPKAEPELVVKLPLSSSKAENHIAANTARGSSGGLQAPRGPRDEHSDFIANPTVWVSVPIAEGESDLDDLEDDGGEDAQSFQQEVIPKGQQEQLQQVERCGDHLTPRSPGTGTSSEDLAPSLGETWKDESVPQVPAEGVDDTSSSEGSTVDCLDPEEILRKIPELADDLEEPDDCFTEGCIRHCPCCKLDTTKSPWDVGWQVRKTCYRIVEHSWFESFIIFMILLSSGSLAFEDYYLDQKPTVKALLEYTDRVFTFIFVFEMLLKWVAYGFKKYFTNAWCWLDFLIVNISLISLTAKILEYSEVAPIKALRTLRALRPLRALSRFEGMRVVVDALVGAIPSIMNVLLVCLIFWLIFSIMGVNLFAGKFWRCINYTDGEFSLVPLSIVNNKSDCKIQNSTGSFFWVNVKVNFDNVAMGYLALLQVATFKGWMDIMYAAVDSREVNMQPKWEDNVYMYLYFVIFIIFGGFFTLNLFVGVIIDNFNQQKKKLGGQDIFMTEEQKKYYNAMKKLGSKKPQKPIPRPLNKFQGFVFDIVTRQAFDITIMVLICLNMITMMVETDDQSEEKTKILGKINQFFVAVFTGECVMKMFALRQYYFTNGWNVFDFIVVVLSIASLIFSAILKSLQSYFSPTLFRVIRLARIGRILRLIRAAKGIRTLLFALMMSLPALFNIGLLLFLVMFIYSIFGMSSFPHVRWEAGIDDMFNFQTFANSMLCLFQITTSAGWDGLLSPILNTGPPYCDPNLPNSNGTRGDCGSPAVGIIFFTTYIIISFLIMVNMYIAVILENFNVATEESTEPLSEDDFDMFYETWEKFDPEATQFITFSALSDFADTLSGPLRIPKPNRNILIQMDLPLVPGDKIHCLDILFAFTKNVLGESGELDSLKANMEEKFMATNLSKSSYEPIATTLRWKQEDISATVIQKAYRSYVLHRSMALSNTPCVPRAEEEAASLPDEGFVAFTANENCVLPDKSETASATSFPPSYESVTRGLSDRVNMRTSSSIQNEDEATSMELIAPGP
smiles,measurement,setting,value
CCN(CC)CCOC(=O)c1ccccc1OC(C)=O.Cl [2-(diethylamino)-ethyl-2-acetoxybenzoate hydrochloride],pIC50,[1],4.46
same,pIC50,Nav1.7 [2],4.75
same,pIC50,Nav1.8 [3],4.13
same,Dissociation constant,[4],8.82
same,Repose angle,[4],42°
same,Acidity: pH value of the 2% aqueous solution,[4]; 2% aqueous solution at 25 ± 0.5° C.,product at 25 ± 0.5 °C is 4.0-6.0
same,Solubility in acetone,[4]; acetone,slightly soluble
same,Solubility in ether,[4]; ether,insoluble
same,Solubility in ethyl acetate,[4]; ethyl acetate,insoluble
same,Solubility in water,[4]; water,extremely soluble
same,CRI (%),[5]; [9],0.0 ± 0.0%
same,CRI (%),"[5]; 3% (m/V), 100 μL on left eyeball, 5 min after administration; mean ± SD; hydrochloride)",99.1 ± 2.0%
same,CRI (%),[5]; [10],97.2 ± 2.9%
same,CRI (%),[5]; [11],96.7 ± 6.5%
same,CRI (%),[5]; [12],86.7 ± 9.8%
same,CRI (%),[5]; [13],77.5 ± 2.9%
same,CRI (%),[5]; [14],57.5 ± 12.2%
same,CRI (%),[5]; [15],12.2 ± 12.4%
same,CRI (%),[5]; [16],0.0 ± 0.0%
same,local anesthetic effect (in words),[5]; [17],"had a local anesthesia effect for ophthalmic administration, with quick onset"
same,"Main Drug, %",[6]; month 0,99.48%
same,"Main Drug, %",[6]; month 0.5,99.32%
same,"Main Drug, %",[6]; month 1,97.59%
same,"Main Drug, %",[6]; month 2,94.86%
same,"Main Drug, %","[6]; month 3, hydrochloride",86% and 86.55%
same,"Salicylic acid, % (impurity)",[6]; month 0,0.0028%
same,"Salicylic acid-(2-diethylaminoethyl ester) hydrochloride, % (impurity)",[6]; month 0,0.51%
same,"Salicylic acid, % (impurity)",[6]; month 0.5,0.0035%
same,"Salicylic acid-(2-diethylaminoethyl ester) hydrochloride, % (impurity)",[6]; month 0.5,0.67%
same,"Acetylsalicylic acid, % (impurity)",[6]; month 1,0.018%
same,"Salicylic acid, % (impurity)",[6]; month 1,0.0044%
same,"Salicylic acid-(2-diethylaminoethyl ester) hydrochloride, % (impurity)",[6]; month 1,2.38%
same,"Acetylsalicylic acid, % (impurity)",[6]; month 2,0.033%
same,"Salicylic acid, % (impurity)",[6]; month 2,0.012%
same,"Salicylic acid-(2-diethylaminoethyl ester) hydrochloride, % (impurity)",[6]; month 2,5.09%
same,"Acetylsalicylic acid, % (impurity)",[6]; month 3,0.042%
same,"Salicylic acid, % (impurity)",[6]; month 3,0.049%
same,stability in solution (in words),[6]; solution state,did not meet the general requirements for chemical drug stability
"CC(=O)Oc1ccccc1C(=O)O [Aspirin, aspirin]",CRI (%),[5]; [9],0.0 ± 0.0%
same,CRI (%),[5]; [18],0.0 ± 0.0%
same,CRI (%),[5]; [10],0.0 ± 0.0%
same,CRI (%),[5]; [11],0.0 ± 0.0%
same,CRI (%),[5]; [12],0.0 ± 0.0%
same,CRI (%),[5]; [13],0.0 ± 0.0%
same,CRI (%),[5]; [14],0.0 ± 0.0%
same,CRI (%),[5]; [15],0.0 ± 0.0%
same,CRI (%),[5]; [16],0.0 ± 0.0%
same,CRI (%),[5]; no time point stated,0.0±0.0%
same,local anesthetic effect (in words),[5]; [17],no local anesthetic effect at all
"CCN(CC)CC(=O)Nc1c(C)cccc1C [Lidocaine, lidocaine]",pIC50,[1],4.43
same,pIC50,Nav1.7 [7],3.35
same,pIC50,Nav1.8 [8],3.98
same,CRI (%),[5]; [9],0.0 ± 0.0%
same,CRI (%),[5]; [18],98.3 ± 3.9%
same,CRI (%),[5]; [10],95.0 ± 10.0%
same,CRI (%),[5]; [11],91.7 ± 15.3%
same,CRI (%),[5]; [12],86.7 ± 21.0%
same,CRI (%),[5]; [13],82.5 ± 27.3%
same,CRI (%),[5]; [14],70.0 ± 27.3%
same,CRI (%),[5]; [15],32.5 ± 30.5%
same,CRI (%),[5]; [16],0.0 ± 0.0%
"O=C([O-])c1ccccc1O.[Na+] [Sodium salicylate, sodium salicylate]",CRI (%),"[5]; rabbit, in vivo",0.0±0.0%
same,local anesthetic effect (in words),"[5]; rabbit, in vivo",no local anesthetic effect at all
